Laboratory results from ChEMBL document CHEMBL3875185, “Structure-anticonvulsant activity studies in the group of (E)-N-cinnamoyl aminoalkanols derivatives monosubstituted in phenyl ring with 4-Cl, 4-CH3 or 2-CH3” (Bioorg Med Chem, 2017).
Activity calls are given as the source filed them. The rule behind the calls is not given here.

Experiments:
[1] = system: Rattus norvegicus; assay: Anticonvulsant activity in po dosed pentylenetetrazole induced seizure Sprague-Dawley rat model assessed as no observable episode of clonic convulsion of at least 5 secs; assay type: functional
[2] = system: Mus musculus; assay: Anticonvulsant activity in ip dosed 6-Hz induced seizure mouse model assessed as restoration of normal activity within 10 secs from stimulation at 32 mA; assay type: functional
[3] = system: Mus musculus; assay: Anticonvulsant activity in ip dosed pentylenetetrazole induced seizure mouse model; assay type: functional
[4] = Displacement of [125I]Tyr11-somatostatin-14 from Sst receptor in mouse AtT-20 cells measured after 60 mins by scintillation counting method; assay type: cell-based; conditions: att20
[5] = Displacement of [35S]dATPaS from rat cerebral cortex P2Y receptor measured after 60 mins by scintillation counting method
[6] = system: Rattus norvegicus; assay: Anticonvulsant activity in po dosed pentylenetetrazole induced seizure rat model; assay type: functional
[7] = system: Mus musculus; assay: Anticonvulsant activity in ip dosed 6-Hz induced seizure mouse model assessed as restoration of normal activity within 10 secs from stimulation at 44 mA; assay type: functional
[8] = system: Rattus norvegicus; assay: Neurotoxicity in Sprague-Dawley rat assessed as behavioral change at 30 mg/kg, ip measured at 4 hrs post dose; assay type: toxicity, organism-based; conditions: in vivo
[9] = system: Rattus norvegicus; assay: Neurotoxicity in Sprague-Dawley rat assessed as behavioral change at 30 mg/kg, ip measured at […] post dose; assay type: toxicity, organism-based; conditions: in vivo
[10] = system: Mus musculus; assay: Neurotoxicity in mouse assessed as induction of motor impairment at 300 mg/kg, ip measured at 4 hrs post dose by rotarod method; assay type: toxicity, organism-based; conditions: in vivo
[11] = system: Mus musculus; assay: Neurotoxicity in mouse assessed as induction of motor impairment at 30 mg/kg, ip measured at 4 hrs post dose by rotarod method; assay type: toxicity, organism-based; conditions: in vivo
[12] = system: Mus musculus; assay: Anticonvulsant activity in 6-Hz induced seizure mouse model assessed as restoration of normal activity within 10 secs from stimulation at 100 mg/kg, ip at 32 mA measured at 0.5 hrs post dose; assay type: functional, organism-based
[13] = system: Mus musculus; assay: Anticonvulsant activity in maximal electroshock induced seizure mouse model assessed as suppression in hindlimb tonic extension at 30 mg/kg, ip measured at 0.5 hrs post dose; assay type: functional, organism-based
[14] = system: Rattus norvegicus; assay: Neurotoxicity in Sprague-Dawley rat assessed as behavioral change at 30 mg/kg, po measured at 0.5 hrs post dose; assay type: toxicity, organism-based; conditions: in vivo
[15] = system: Mus musculus; assay: Anticonvulsant activity in maximal electroshock induced seizure mouse model assessed as suppression in hindlimb tonic extension at 100 mg/kg, ip measured at 0.5 hrs post dose; assay type: functional, organism-based
[16] = system: Rattus norvegicus; assay: Neurotoxicity in Sprague-Dawley rat assessed as behavioral change at 30 mg/kg, ip measured at 2 hrs post dose; assay type: toxicity, organism-based; conditions: in vivo
[17] = system: Rattus norvegicus; assay: Neurotoxicity in Sprague-Dawley rat assessed as behavioral change at 30 mg/kg, po measured at 2 hrs post dose; assay type: toxicity, organism-based; conditions: in vivo
[18] = system: Rattus norvegicus; assay: Neurotoxicity in Sprague-Dawley rat assessed as behavioral change at 30 mg/kg, po measured at […] post dose; assay type: toxicity, organism-based; conditions: in vivo
[19] = system: Mus musculus; assay: Neurotoxicity in mouse assessed as induction of motor impairment at 100 mg/kg, ip measured at 4 hrs post dose by rotarod method; assay type: toxicity, organism-based; conditions: in vivo
[20] = system: Rattus norvegicus; assay: Neurotoxicity in Sprague-Dawley rat assessed as behavioral change at 30 mg/kg, po measured at 1 hr post dose; assay type: toxicity, organism-based; conditions: in vivo
[21] = system: Rattus norvegicus; assay: Neurotoxicity in Sprague-Dawley rat assessed as behavioral change at 30 mg/kg, po measured at 4 hrs post dose; assay type: toxicity, organism-based; conditions: in vivo
[22] = system: Rattus norvegicus; assay: Neurotoxicity in Sprague-Dawley rat assessed as behavioral change at 30 mg/kg, ip measured at 0.5 hrs post dose; assay type: toxicity, organism-based; conditions: in vivo
[23] = system: Rattus norvegicus; assay: Anticonvulsant activity in maximal electroshock induced seizure Sprague-Dawley rat model assessed as suppression in hindlimb tonic extension at 30 mg/kg, ip measured at […] post dose; assay type: functional, organism-based
[24] = system: Rattus norvegicus; assay: Neurotoxicity in Sprague-Dawley rat assessed as behavioral change at 30 mg/kg, ip measured at 1 hr post dose; assay type: toxicity, organism-based; conditions: in vivo
[25] = system: Mus musculus; assay: Anticonvulsant activity in 6-Hz induced seizure mouse model assessed as restoration of normal activity within 10 secs from stimulation at 100 mg/kg, ip at 32 mA measured at […] post dose; assay type: functional, organism-based
[26] = system: Mus musculus; assay: Neurotoxicity in mouse assessed as induction of motor impairment at 300 mg/kg, ip measured at 0.5 hrs post dose by rotarod method; assay type: toxicity, organism-based; conditions: in vivo
[27] = system: Mus musculus; assay: Anticonvulsant activity in maximal electroshock induced seizure mouse model assessed as suppression in hindlimb tonic extension at 300 mg/kg, ip measured at 0.5 hrs post dose; assay type: functional, organism-based
[28] = system: Mus musculus; assay: Anticonvulsant activity in pentylenetetrazole induced seizure mouse model assessed as no observable episode of clonic convulsion of at least 5 secs at 300 mg/kg, ip measured at 0.5 hrs post dose; assay type: functional, organism-based
[29] = system: Mus musculus; assay: Neurotoxicity in mouse assessed as induction of motor impairment at 30 mg/kg, ip measured at 0.5 hrs post dose by rotarod method; assay type: toxicity, organism-based; conditions: in vivo
[30] = system: Mus musculus; assay: Anticonvulsant activity in pentylenetetrazole induced seizure mouse model assessed as no observable episode of clonic convulsion of at least 5 secs at 100 mg/kg, ip measured at 0.5 hrs post dose; assay type: functional, organism-based
[31] = system: Mus musculus; assay: Anticonvulsant activity in maximal electroshock induced seizure mouse model assessed as suppression in hindlimb tonic extension at 300 mg/kg, ip measured at 4 hrs post dose; assay type: functional, organism-based
[32] = system: Mus musculus; assay: Anticonvulsant activity in pentylenetetrazole induced seizure mouse model assessed as no observable episode of clonic convulsion of at least 5 secs at 300 mg/kg, ip measured at 4 hrs post dose; assay type: functional, organism-based
[33] = Displacement of [35S]TBPS from rat cerebral cortex GABA-gated chloride channel measured after 60 mins by scintillation counting method
[34] = Displacement of [3H]a,b-MeATP from rat urinary bladder P2X receptor measured after 120 mins by scintillation counting method
[35] = Displacement of [3H]D888 from rat cerebral cortex calcium channel L type verapamil binding site measured after 120 mins by scintillation counting method
[36] = biological target: Vasoactive intestinal polypeptide receptor 1 (Homo sapiens, UniProt P32241); assay: Displacement of [125I]VIP from human recombinant VPAC1 receptor expressed in CHO cells measured after 60 mins by scintillation counting method; assay type: cell-based
Vasoactive intestinal polypeptide receptor 1, sequence (P32241 whole entry): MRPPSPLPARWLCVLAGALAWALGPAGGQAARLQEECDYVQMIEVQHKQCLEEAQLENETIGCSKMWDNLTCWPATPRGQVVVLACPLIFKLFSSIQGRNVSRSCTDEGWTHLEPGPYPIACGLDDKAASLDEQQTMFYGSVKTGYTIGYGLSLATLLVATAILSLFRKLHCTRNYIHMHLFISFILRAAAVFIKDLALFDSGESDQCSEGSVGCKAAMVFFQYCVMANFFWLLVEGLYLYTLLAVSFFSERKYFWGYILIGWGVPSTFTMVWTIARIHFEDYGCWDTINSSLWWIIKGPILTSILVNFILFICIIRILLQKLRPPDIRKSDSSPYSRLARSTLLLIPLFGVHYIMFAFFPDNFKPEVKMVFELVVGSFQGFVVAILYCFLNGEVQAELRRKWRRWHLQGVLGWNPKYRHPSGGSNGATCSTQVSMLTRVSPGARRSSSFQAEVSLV

[37] = Displacement of [3H]TCP from rat cerebral cortex phencyclidine receptor measured after 120 mins by scintillation counting method
[38] = Displacement of [3H]batrachotoxinin from rat cerebral cortex sodium channel site 2 measured after 60 mins by scintillation counting method
[39] = system: Mus musculus; assay: Anticonvulsant activity in maximal electroshock induced seizure mouse model assessed as suppression in hindlimb tonic extension at 100 mg/kg, ip measured at 4 hrs post dose; assay type: functional, organism-based
[40] = system: Mus musculus; assay: Anticonvulsant activity in ip dosed maximal electroshock induced seizure mouse model assessed as suppression in hindlimb tonic extension by measuring time to peak effect; assay type: functional
[41] = Protection index, ratio of TD50 for neurotoxicity in ip dosed mouse to ED50 for ip dosed pentylenetetrazole induced seizure mouse model; assay type: toxicity, organism-based; conditions: in vivo, read-out: Ratio TD50/ED50
[42] = Protection index, ratio of TD50 for neurotoxicity in ip dosed mouse to ED50 for ip dosed maximal electroshock induced seizure mouse model; assay type: toxicity, organism-based; conditions: in vivo, read-out: Ratio TD50/ED50
[43] = system: Mus musculus; assay: Anticonvulsant activity in maximal electroshock induced seizure mouse model assessed as suppression in hindlimb tonic extension at 30 mg/kg, ip measured at 4 hrs post dose; assay type: functional, organism-based
[44] = system: Mus musculus; assay: Anticonvulsant activity in ip dosed maximal electroshock induced seizure mouse model assessed as suppression in hindlimb tonic extension; assay type: functional
[45] = system: Mus musculus; assay: Anticonvulsant activity in ip dosed pentylenetetrazole induced seizure mouse model assessed as no observable episode of clonic convulsion of at least 5 secs by measuring time to peak effect; assay type: functional
[46] = system: Mus musculus; assay: Neurotoxicity in ip dosed mouse assessed as induction of motor impairment by measuring time to peak effect by rotarod method; assay type: toxicity, organism-based; conditions: in vivo
[47] = system: Mus musculus; assay: Anticonvulsant activity in ip dosed pentylenetetrazole induced seizure mouse model assessed as no observable episode of clonic convulsion of at least 5 secs; assay type: functional
[48] = system: Rattus norvegicus; assay: Anticonvulsant activity in maximal electroshock induced seizure Sprague-Dawley rat model assessed as suppression in hindlimb tonic extension at 30 mg/kg, po measured at 2 hrs post dose; assay type: functional, organism-based
[49] = system: Mus musculus; assay: Anticonvulsant activity in 6-Hz induced seizure mouse model assessed as restoration of normal activity within 10 secs from stimulation at 100 mg/kg, ip at 32 mA measured at 4 hrs post dose; assay type: functional, organism-based
[50] = Neurotoxicity in ip dosed mouse; assay type: toxicity, organism-based; conditions: in vivo

## NC(=O)N1c2ccccc2C=Cc2ccccc21 [CARBAMAZEPINE]
[1]
  ED50: > 250 mg/kg
[2]
  ED50: 47.9 mg/kg
[3]
  ED50: > 50 mg/kg

## C[C@H](N)C(=O)NCC(=O)N[C@H]1CSSC[C@@H](C(=O)O)NC(=O)[C@H](CO)NC(=O)[C@H]([C@@H](C)O)NC(=O)[C@H](Cc2ccccc2)NC(=O)[C@H]([C@@H](C)O)NC(=O)[C@H](CCCCN)NC(=O)[C@H](Cc2c[nH]c3ccccc23)NC(=O)[C@H](Cc2ccccc2)NC(=O)[C@H](Cc2ccccc2)NC(=O)[C@H](CC(N)=O)NC(=O)[C@H](CCCCN)NC1=O [SOMATOSTATIN]
[4]
  IC50: 0.074 nM

## Nc1ncnc2c1ncn2[C@H]1C[C@H](O)[C@@H](COP(O)(=S)OP(=O)(O)OP(=O)(O)O)O1 (stereo partly specified)
[5]
  IC50: 29 nM

## CCCC(CCC)C(=O)O [VALPROIC ACID]
[6]
  ED50: 646 mg/kg
[7]
  ED50: 310 mg/kg
[3]
  ED50: 220 mg/kg

## CCC(O)CNC(=O)/C=C/c1ccccc1C (stereo unspecified)
[8]
  Activity: Non-Toxic
[9]
  Activity: Non-Toxic
[10]
  Activity: Non-Toxic
[11]
  Activity: Non-Toxic
[12]
  Activity: Active
[13]
  Activity: Active
[14]
  Activity: Non-Toxic
[15]
  Activity: Active
[16]
  Activity: Non-Toxic
[17]
  Activity: Non-Toxic
[18]
  Activity: Non-Toxic
[19]
  Activity: Non-Toxic
[20]
  Activity: Non-Toxic
[21]
  Activity: Non-Toxic
[22]
  Activity: Non-Toxic
[23]
  Activity: Active
[24]
  Activity: Non-Toxic
[25]
  Activity: Active
[26]
  Activity: Toxic
[27]
  Activity: Active
[28]
  Activity: Active

## CCC(O)CNC(=O)/C=C/c1ccc(Cl)cc1 (stereo unspecified)
[29]
  Activity: Non-Toxic
[30]
  Activity: Active
[10]
  Activity: Toxic
[11]
  Activity: Non-Toxic
[31]
  Activity: Active
[19]
  Activity: Non-Toxic
[32]
  Activity: Active
[26]
  Activity: Toxic
[27]
  Activity: Active
[28]
  Activity: Active

## C=C(C)[C@@H]1[C@H]2OC(=O)[C@@H]1[C@]1(O)C[C@H]3O[C@]34C(=O)O[C@H]2[C@]14C [PICROTOXININ]
[33]
  IC50: 77 nM

## Nc1ncnc2c1ncn2[C@@H]1O[C@H](COP(=O)(O)CP(=O)(O)OP(=O)(O)O)[C@@H](O)[C@H]1O [DIPHOSPHOMETHYLPHOSPHONIC ACID ADENOSYL ESTER]
[34]
  IC50: 1.9 nM

## COc1ccc(CCN(C)CCCC(C#N)(c2cc(OC)c(OC)c(OC)c2)C(C)C)cc1OC (stereo unspecified) [GALLOPAMIL]
[35]
  IC50: 15 nM

## H-HSDAVFTDNYTRLRKQLAVKKYLNSILN-NH2
[36]
  IC50: 0.11 nM

## C[C@]12N[C@H](Cc3ccccc31)c1ccccc12 [DIZOCILPINE]
[37]
  IC50: 4.6 nM

## COc1ccc(C(=O)O[C@H]2CC[C@@]3(C)[C@H]4CC[C@H]5[C@]6(O)C[C@H](O)[C@@]7(O)[C@@H](CN8C[C@@H](C)CC[C@H]8[C@@]7(C)O)[C@]6(O)C[C@@]53O[C@@]24O)cc1OC
[38]
  IC50: 4000 nM

## O=C(/C=C/c1ccc(Cl)cc1)N[C@H]1CC[C@H](O)CC1
[29]
  Activity: Non-Toxic
[39]
  Activity: Active
[40]
  Time: 2 h
[41]
  selectivity ratio: > 1.9
[8]
  Activity: Non-Toxic
[9]
  Activity: Non-Toxic
[10]
  Activity: Non-Toxic
[11]
  Activity: Non-Toxic
[31]
  Activity: Active
[14]
  Activity: Non-Toxic
[42]
  selectivity ratio: > 3.22
[16]
  Activity: Non-Toxic
[17]
  Activity: Non-Toxic
[43]
  Activity: Active
[18]
  Activity: Non-Toxic
[20]
  Activity: Non-Toxic
[44]
  ED50: 186 mg/kg
[45]
  Time: 2 h
[21]
  Activity: Non-Toxic
[46]
  Time: 6 h
[22]
  Activity: Non-Toxic
[24]
  Activity: Non-Toxic
[47]
  ED50: 317 mg/kg
[48]
  Activity: Active
[49]
  Activity: Active
[50]
  TD50: > 600 mg/kg
